The subject of the experiment is CD2F1 mice, L1210 leukemia ip, survival T/C. Nature of the experiment: NCI In Vivo Anticancer Drug Screen. Data for tumor model L1210 Leukemia (intraperitoneal) in CD2F1 (CDF1) mice. The following applies: endpoint: mean survival time, higher = longer survival. The method in brief: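 Compound-dosed mice with transplantable tumor versus matched vehicle controls; endpoint ratio T/C reported.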

Where [1] appears, read: dose: 100.0 mg/kg/injection, schedule: Q01DX001 (ip), vehicle: saline with Tween-80.
Setting [2] is: dose: 100.0 mg/kg/injection, schedule: Q01DX009 (ip), vehicle: saline with Tween-80.
The mark [3] stands for this setting: dose: 100.0 mg/kg/injection, schedule: Q04DX002 (ip), vehicle: saline with Tween-80.
Setting [4] is: dose: 100.0 mg/kg/injection, schedule: Q04DX003 (ip), vehicle: saline with Tween-80.
Setting [5] is: dose: 200.0 mg/kg/injection, schedule: Q01DX001 (ip), vehicle: saline with Tween-80.
Setting [6] is: dose: 200.0 mg/kg/injection, schedule: Q01DX009 (ip), vehicle: saline with Tween-80.
Setting [7] is: dose: 200.0 mg/kg/injection, schedule: Q04DX002 (ip), vehicle: saline with Tween-80.
Where [8] appears, read: dose: 400.0 mg/kg/injection, schedule: Q04DX003 (ip), vehicle: saline with Tween-80.
Where [9] appears, read: dose: 200.0 mg/kg/injection, schedule: Q04DX003 (ip), vehicle: saline with Tween-80.
Where [10] appears, read: dose: 75.0 mg/kg/injection, schedule: Q01DX001 (ip), vehicle: saline.
[11] abbreviates: dose: 400.0 mg/kg/injection, schedule: Q01DX009 (ip), vehicle: saline with Tween-80.

Values joined by “and” are separate entries in the source; they are usually repeats but may differ in a detail not shown here. Equal values may be shown once. Toxic doses and inconclusive results are not listed. Non-standard residues stand in square brackets, D forms with d. Residues, ends and D or L forms follow the SMILES beside them. ξ: configuration not given here. *: point of attachment. ξAsp(βξ-Me) = CC(C(=O)O)C(N)C(=O)O; X5 = CC(N*)C1NC(=O)C2CCCCN2C1=O; ξAbu(3ξ-NH2) = CC(N)C(N)C(=O)O; X4 = CCC(C)CCC/C=C/CC(=O)*

With `NC(=O)/C=C/C(=O)NC(=O)Cc1ccccc1`, the T/C (dose: 3.0 mg/kg/injection, schedule: Q01DX009 (ip), vehicle: saline with Tween-80) was 97 % of control; the T/C (dose: 6.0 mg/kg/injection, schedule: Q01DX009 (ip), vehicle: saline with Tween-80) is 98 % of control; the T/C (dose: 12.0 mg/kg/injection, schedule: Q01DX009 (ip), vehicle: saline with Tween-80) was 92 % of control.
As to `NC(=S)N/N=C/c1ccc(OC(=O)COc2ccccc2Cl)cn1`, the T/C was 120 % of control (dose: 12.5 mg/kg/injection, schedule: Q01DX009 (ip), vehicle: saline with Tween-80); 122 % of control (dose: 25.0 mg/kg/injection, schedule: Q01DX009 (ip), vehicle: saline with Tween-80); 101 % of control (dose: 50.0 mg/kg/injection, schedule: Q01DX001 (ip), vehicle: saline with Tween-80); 116 % of control and 118 % of control (dose: 50.0 mg/kg/injection, schedule: Q04DX003 (ip), vehicle: saline with Tween-80); 108 % of control under setting [1]; 159 % of control under setting [2]. The T/C is, setting by setting: under setting [3], 103 % of control and 106 % of control; under setting [4], 124 % of control; under setting [5], 113 % of control; under setting [6], 155 % of control; under setting [7], 118 % of control and 107 % of control; under setting [8], 152 % of control and 163 % of control.
Turning to `O=c1cc(C(Br)(Br)Br)[nH]c2ccccc12`, the T/C is, setting by setting: under setting [4], 99 % of control; under setting [9], 97 % of control; under setting [8], 99 % of control.
For `CC(=O)OCC1OC(n2cc(F)c(=O)[nH]c2=O)CC1OC(C)=O` (stereo not given), the T/C is 123 % of control (dose: 50.0 mg/kg/injection, schedule: Q01DX009 (ip), vehicle: other); 93 % of control (dose: 100.0 mg/kg/injection, schedule: Q01DX001 (ip), vehicle: other); 110 % of control (dose: 200.0 mg/kg/injection, schedule: Q01DX001 (ip), vehicle: other); 117 % of control (dose: 200.0 mg/kg/injection, schedule: Q01DX009 (ip), vehicle: other); 102 % of control (dose: 400.0 mg/kg/injection, schedule: Q01DX001 (ip), vehicle: other); 119 % of control (dose: 800.0 mg/kg/injection, schedule: Q01DX001 (ip), vehicle: other).
For `CCC(C)CCC/C=C/CC(=O)NC(CC(=O)O)C(=O)NC(C(=O)NC(CC(=O)O)C(=O)NCC(=O)NC(CC(=O)O)C(=O)NCC(=O)NC(C(=O)NC(C(=O)N1CCCC1C(=O)NC(C)C1NC(=O)C2CCCCN2C1=O)C(C)C)C(C)N)C(C)C(=O)O` (stereo not drawn) (X4-D[ξAsp(βξ-Me)]DGDG[ξAbu(3ξ-NH2)]VP-X5; configuration not given here), the T/C is 93 % of control (dose: 100.0 mg/kg/injection, schedule: Q01DX009 (ip), vehicle: saline + alcohol) and 87 % of control (dose: 200.0 mg/kg/injection, schedule: Q01DX009 (ip), vehicle: saline + alcohol).
With `CN(C)c1ccc(C(=C(c2ccc(N(C)C)cc2)c2ccc(N(C)C)cc2)c2ccc(N(C)C)cc2)cc1`, the T/C under setting [10] is 106 % of control.
For `CC(N)c1ccccc1` (stereo not given), the T/C was 98 % of control (dose: 37.5 mg/kg/injection, schedule: Q04DX003 (ip), vehicle: saline); 96 % of control under setting [10]; 100 % of control (dose: 75.0 mg/kg/injection, schedule: Q04DX003 (ip), vehicle: saline); 100 % of control (dose: 150.0 mg/kg/injection, schedule: Q01DX001 (ip), vehicle: saline); 100 % of control (dose: 150.0 mg/kg/injection, schedule: Q04DX003 (ip), vehicle: saline); 106 % of control (dose: 300.0 mg/kg/injection, schedule: Q01DX001 (ip), vehicle: saline).
In the case of `O=C(O)O.[Co]`, the T/C (dose: 400.0 mg/kg/injection, schedule: Q01DX001 (ip), vehicle: saline) is 105 % of control.
Take `Cc1cc(Cl)ccc1N=Cc1ccc2c(c1)OCO2`: the T/C reads like this: (dose: 100.0 mg/kg/injection, schedule: Q01DX001 (ip), vehicle: Klucel (hydroxypropylcellulose) (HPC)) 95 % of control; (dose: 100.0 mg/kg/injection, schedule: Q01DX009 (ip), vehicle: Klucel (hydroxypropylcellulose) (HPC)) 108 % of control; (dose: 200.0 mg/kg/injection, schedule: Q01DX001 (ip), vehicle: Klucel (hydroxypropylcellulose) (HPC)) 102 % of control; (dose: 200.0 mg/kg/injection, schedule: Q01DX009 (ip), vehicle: Klucel (hydroxypropylcellulose) (HPC)) 105 % of control; (dose: 400.0 mg/kg/injection, schedule: Q01DX001 (ip), vehicle: Klucel (hydroxypropylcellulose) (HPC)) 95 % of control; (dose: 400.0 mg/kg/injection, schedule: Q01DX009 (ip), vehicle: Klucel (hydroxypropylcellulose) (HPC)) 98 % of control.
As to `COc1ccc2c(ccc3cc(OC)ccc32)c1`, the T/C (dose: 50.0 mg/kg/injection, schedule: Q04DX002 (ip), vehicle: saline with Tween-80) was 93 % of control; the T/C under setting [3] was 100 % of control; the T/C under setting [7] was 93 % of control.
Consider `CCOC(=O)C(CCCCC(NC(C)=O)(C(=O)OCC)C(=O)OCC)(NC(C)=O)C(=O)OCC`, for which the T/C runs as follows: under setting [4], 98 % of control; under setting [9], 92 % of control; under setting [8], 92 % of control.
On to `Nc1nc(N)c(-c2cccc(Cl)c2)c(COc2ccc([N+](=O)[O-])cc2)n1`, for which the T/C was 94 % of control under setting [1]; 92 % of control under setting [5]; 93 % of control (dose: 400.0 mg/kg/injection, schedule: Q01DX001 (ip), vehicle: saline with Tween-80).
Turning to `C(=N\Nc1nc2ccccc2s1)/c1cccnc1`, the T/C by setting is: (dose: 100.0 mg/kg/injection, schedule: Q04DX003 (ip), vehicle: Klucel (hydroxypropylcellulose) (HPC)) 97 % of control; (dose: 200.0 mg/kg/injection, schedule: Q04DX003 (ip), vehicle: Klucel (hydroxypropylcellulose) (HPC)) 94 % of control; (dose: 400.0 mg/kg/injection, schedule: Q04DX003 (ip), vehicle: Klucel (hydroxypropylcellulose) (HPC)) 100 % of control.
`CC(=O)C(C)(O)C(C)(C)C` (stereo not given): the T/C is 95 % of control (dose: 100.0 mg/kg/injection, schedule: Q04DX003 (ip), vehicle: saline); 93 % of control (dose: 200.0 mg/kg/injection, schedule: Q04DX003 (ip), vehicle: saline); 98 % of control (dose: 400.0 mg/kg/injection, schedule: Q04DX003 (ip), vehicle: saline).
As for `O=C1C=C(O)c2cc(Br)ccc2C1=O.[Ag]`, the T/C runs as follows: (dose: 25.0 mg/kg/injection, schedule: Q04DX002 (ip), vehicle: saline) 106 % of control; (dose: 50.0 mg/kg/injection, schedule: Q04DX002 (ip), vehicle: saline) 113 % of control; (dose: 100.0 mg/kg/injection, schedule: Q04DX002 (ip), vehicle: saline) 97 % of control.
With `Br/C(C=Nc1ccccc1)=C\Nc1ccccc1`, the T/C was 102 % of control under setting [2]; 101 % of control under setting [4]; 86 % of control under setting [6]; 108 % of control under setting [9]; 86 % of control under setting [11]; 108 % of control under setting [8].
With `CCOC(=O)C(C#N)C(=N)C#N` (stereo not given), the T/C by setting is: under setting [3], 93 % of control; under setting [7], 89 % of control; (dose: 400.0 mg/kg/injection, schedule: Q04DX002 (ip), vehicle: saline with Tween-80) 110 % of control.
For `CC(CC=O)P(=O)(c1ccccc1)c1ccccc1` (stereo not given), the T/C under setting [2] is 94 % of control; the T/C under setting [4] is 94 % of control; the T/C under setting [6] was 92 % of control; the T/C under setting [9] was 91 % of control; the T/C under setting [11] was 95 % of control; the T/C under setting [8] is 91 % of control.
Regarding `Cc1cc(N(C)C)c(C(C)C)cc1O` (tested in a mixture with another compound), the T/C is 104 % of control (dose: 32.0 micrograms/kg/injection, schedule: Q04DX003 (ip), vehicle: saline); 112 % of control (dose: 63.0 micrograms/kg/injection, schedule: Q01DX001 (ip), vehicle: saline); 98 % of control (dose: 63.0 micrograms/kg/injection, schedule: Q04DX003 (ip), vehicle: saline); 112 % of control (dose: 125.0 micrograms/kg/injection, schedule: Q01DX001 (ip), vehicle: saline); 101 % of control (dose: 125.0 micrograms/kg/injection, schedule: Q04DX003 (ip), vehicle: saline).
As to `CN(C)C(=O)OCC[N+](C)(C)CCCCCCCCCC[N+](C)(C)CCOC(=O)N(C)C`, the T/C runs as follows: (dose: 1.25 mg/kg/injection, schedule: Q04DX003 (ip), vehicle: saline) 103 % of control; (dose: 2.5 mg/kg/injection, schedule: Q04DX003 (ip), vehicle: saline) 97 % of control.

(Values after PubChem BioAssay AID256 (DTP/NCI, 2004).)
